Laboratory results: patent US20190231788A1, “COMPOSITIONS COMPRISING TIMOLOL AND AN ANTI-INFLAMMATORY AGENT” (Almirall, S.A., priority 2016, published 2019)

Columns and labels:
[1] = test system: TPA-induced ear oedema; test: TPA-induced ear oedema model in Balb/c mice, single topical application; format: in vivo
Protocol: Evaluation of the Anti-Oedema Effect of Ivermectin, Praziquantel and Timolol and Combinations of Timolol with Ivermectin or Praziquantel after a Single Topical Application in the TPA-Induced Ear Oedema Model in Balb/c Mice.
The oedema is induced by means of a single application to the right ear of the mouse of 10 μl of a solution of TPA (phorbol 12-myristate 13-acetate) in acetone at 0.01%. The test compounds are diluted in acetone and applied with TPA. The weight of the mouse ears is measured at T+6 h and the weight of the left ear is subtracted from the one of the right ear.
Treatments: • A. Ivermectin is applied at a concentration of 0.1-0.3-1%, • B. Praziquantel is applied at a concentration at 0.3-1-3% • C. Timolol is applied at a concentration at 0.2-0.5-1%.
For combination studies Ivermectin alone is applied at a concentration of 0.3%, praziquantel alone is applied at 1% and timolol alone is applied at 0.5%. These same strengths are used in the combinations.
Each graph represents the average weight of the ear oedema of four different groups of treated animals. Each group includes 6 animals. Numbers above the bars indicate the percentage inhibition of the corresponding group of treated animals vs the control group.

[2] = test system: TPA-induced ear oedema; conditions: topical 0.2%; mice; cited from earlier work
[3] = dose-response study (FIGS. A-C), 0.3% in acetone applied with TPA, ear weight at T+6 h
[4] = dose-response study (FIGS. A-C), 1% in acetone applied with TPA, ear weight at T+6 h

## O=C(C1CCCCC1)N1CC(=O)N2CCc3ccccc3C2C1 (racemic) [praziquantel, (RS)-2-(Cyclohexylcarbonyl)-1,2,3,6,7,11b-hexahydro-4H-pyrazino[2,1-a]isoquinolin-4-one]
[1]; combination study FIG. 2, praziquantel alone at 1%, T+6 h
  inhibition of ear oedema vs control group: 42%
[1]; [3]
  inhibition of ear oedema vs control group: 15%
[1]; [4]
  inhibition of ear oedema vs control group: 48%
[1]; dose-response study (FIGS. A-C), 3% in acetone applied with TPA, ear weight at T+6 h
  inhibition of ear oedema vs control group: 91%

## CC(C)(C)NC[C@H](O)COc1nsnc1N1CCOCC1 [timolol, (S)-1-(tert-butylamino)-3-[(4-morpholin-4-yl-1,2,5-thiadiazol-3-yl)oxy]propan-2-ol]
[1]; combination study FIG. 1, timolol alone at 0.5%, T+6 h
  inhibition of ear oedema vs control group: 30%
[1]; combination study FIG. 2, timolol alone at 0.5%, T+6 h
  inhibition of ear oedema vs control group: 16%
[1]; dose-response study (FIGS. A-C), 0.2% in acetone applied with TPA, ear weight at T+6 h
  inhibition of ear oedema vs control group: 6%
[1]; dose-response study (FIGS. A-C), 0.5% in acetone applied with TPA, ear weight at T+6 h
  inhibition of ear oedema vs control group: 23%
[1]; [4]
  inhibition of ear oedema vs control group: 14%

## CC[C@H](C)[C@H]1O[C@]2(CC[C@@H]1C)C[C@@H]1C[C@@H](C/C=C(\C)C(O[C@H]3C[C@H](OC)C(O[C@H]4C[C@H](OC)[C@@H](O)[C@H](C)O4)[C@H](C)O3)[C@@H](C)/C=C/C=C3\CO[C@@H]4[C@H](O)C(C)=C[C@@H](C(=O)O1)[C@]34O)O2 (some centres unmarked) [ivermectin, 22,23-dihydroavermectin B1a]
[1]; combination study FIG. 1, ivermectin alone at 0.3%, T+6 h
  inhibition of ear oedema vs control group: 37%
[1]; dose-response study (FIGS. A-C), 0.1% in acetone applied with TPA, ear weight at T+6 h
  inhibition of ear oedema vs control group: 20%
[1]; [3]
  inhibition of ear oedema vs control group: 43%
[1]; [4]
  inhibition of ear oedema vs control group: 82%

## Brc1c(NC2=NCCN2)ccc2nccnc12 [brimonidine]
[2]
  inhibition of TPA-induced ear oedema: 50%
